Reference: patent US8729048B2, “Methods and materials for assessing responsiveness to PARP inhibitors and platinating agents” (Mayo Foundation for Medical Education and Research, priority 2011, dated 2014)
“Also recorded” adds a separate entry of the source.

How the values were obtained:
[1] = test system: NHEJ activity in PEO4 cells; experiment: NHEJ end-joining reporter assay, PEO4; type: cell-based; details: 72 hours
From the text: FIG. 3. Error-prone NHEJ activity is enhanced by PARP inhibitors in PEO1 cells. (A) Schematic of the in vivo NHEJ assay. Pem1-Ad2-EGFP is an EGFP-containing vector with a 2.4 kb intron (Pem1) and one exon (Ad2) inserted into the EGFP cassette. Pem1-Ad2-EGFP was cut with either HindIII or I-SceI to produce linearized substrate with compatible overhangs or incompatible inverted overhangs, respectively. Successfully recircularized plasmid will produce intact EGFP, which can be assayed via flow cytometry. Any residual uncut plasmid, due to the insertion of the Ad2 exon within the EGFP open reading frame, will be EGFP negative. A pCherry plasmid was co-transfected with substrate to correct for transfection efficiency. (B) and (C) Quantitation of NHEJ activity in PEO1 and PEO4 cells transfected with HindIII substrate (B) or I-SceI substrate (C) and exposed to ABT-888 for 72 hours. Each data point represents the mean±SEM from 3 independent experiments.
The end-joining reporter plasmid pEGFP-Pem1-Ad2 described elsewhere (Wang et al., Nucleic Acids Res., 34:6170-6182 (2006); Seluanov et al., Proc. Natl. Acad. Sci. USA, 101:7624-7629 (2004); and Fattah et al., PLoS Genet., 6:e1000855 (2010); see also (FIG. 3A)) was provided by E. Hendrickson (University of Minnesota, Minneapolis, Minn.) and was digested with either HindIII or I-SceI for 12 hours, and gel purified using a Qiagen gel extraction kit. […]

[2] = test system: ATM-deficient GM16666 fibroblasts; experiment: Clonogenic assay, GM16666; type: cell-based; details: GM16666 cells versus ATM-reconstituted GM16667, 48 hours
Procedure: FIG. 6. […] (A) BRCA1-deficient HCC1937 and BRCA1-reconstituted HCC1937/BRCA1 cells were continuously exposed to ABT-888 in the presence or absence of 125 nM DNA-PKi and assayed for clonogenic survival. Inset, Western blots of cell lysates from HCC1937 and HCC1937/BRCA1. (B) Western blots of M059J and reconstituted M059J+DNA-PKcs lines showing the restoration of DNA-PK expression and the shRNA-mediated knockdown of BRCA1. (C) Clonogenic survival of shRNA transfected M059J/M059J+DNA-PKcs lines treated with ABT-888 for 72 hours. (D) Clonogenic survival of ATM-deficient GM16666 or ATM-reconstituted GM16667 fibroblasts. Cells were exposed to ABT-888 for 48 hours in the presence or absence of 250 nM DNA-PKi, washed, and allowed to form colonies. Inset, Western blots of lysates from GM16666 and GM16667 fibroblasts. […] Results are representative of 3 independent experiments.
Colony formation assays were performed on siRNA-transfected PEO1 and PEO4 cells 48 hours after the second transfection. Cells were trypsinized and plated at 750 cells/plate in triplicate 60-mm dishes containing medium A, allowed to grow 10-14 days, and stained with Coomassie Brilliant Blue. Colonies containing ≧50 cells were scored manually. […]

In the case of `C[C@]1(c2nc3c(C(N)=O)cccc3[nH]2)CCCN1` [ABT-888], the “end-joining of HindIII-linearized substrate” value [1] is reported as “little effect; also recorded: small increase in end-joining” and the clonogenic sensitivity [2] is reported as “heightened sensitivity”.
